Values joined by “and” are separate entries in the source; they are usually repeats but may differ in a detail not shown here. Equal entries are not always repeated.
How the values were obtained:
[1] = tested on: GLUT4; test: GLUT4 protein in plasma membrane fraction of triceps surae muscle (immunoblot); format: in vivo, mouse; conditions: DS20060511 10 mg kg−1 or insulin 5 U kg−1 via inferior vena cava, 10 min; Fig. 2e
Method: The plasma membrane fraction of each skeletal muscle specimen was prepared as described previously[48],[49]. Briefly, the triceps surae muscle was homogenized in Buffer A (20 mM HEPES, 1 mM EDTA, 1 mM PMSF, and protease inhibitor) containing 250 mM sucrose on ice. The muscle homogenate was centrifuged at 2000 × g for 10 min at 4 °C to remove any unhomogenized muscle fibers. The supernatant was then centrifuged at 19,000 × g for 20 min at 4 °C. The pellet was resuspended in 3 mL Buffer A, layered on a 6 mL sucrose cushion (38% sucrose in Buffer A) and centrifuged at 100,000 × g for 60 min at 4 °C. The membrane fraction recovered on top of the sucrose cushion was resuspended in Buffer A and centrifuged at 40,000 × g for 20 min at 4 °C. The pellet was designated as the plasma membrane fraction and subjected to immunoblotting.
Phosphorylated or total protein of IRβ and IRS1 was resolved on 7% SDS-PAGE and analyzed using specific antibodies against IRβ, IRS1, and phosphotyrosine. […] Bound antibodies were detected with HRP-conjugated secondary antibodies using ECL detection reagents (GE Healthcare, Chicago, IL).

[2] = tested on: AMPK; test: AMPK (Thr172) phosphorylation in isolated muscles with or without electrical stimulation; set-up: species or system mouse; conditions: isolated skeletal muscle; 10 μM DS20060511; Fig. 6b
[3] = tested on: WT and eNOSKO mice; test: ITT in wild-type and eNOS-knockout mice; format: in vivo, mouse; conditions: for Blood glucose: Insulin tolerance test, individual animals
Method: Fig. 7 DS20060511 treatment decreases blood glucose levels in both WT and eNOSKO mice during oral GTT and ITT. a, b Blood glucose levels during oral GTT in wild-type (WT, n = 5) and eNOS-knockout (KO, n = 5–6) mice. Mice received vehicle or DS20060511 (10 mg kg^−1) orally 15 min before the glucose administration (3.0 g kg^−1). c, d Blood glucose levels during ITT in WT (n = 4) and KO (n = 5) mice. […] Values shown are means ± SEM. *P < 0.05, **P < 0.01, ***P < 0.001 vs. vehicle by the t-test.
C57BL/6 and db/db mice were purchased from CLEA Japan, Tokyo, Japan. GLUT4- knockout mice were generated at RIKEN BioResource Center, Tsukuba, Japan, according to a previously described method. eNOS-knockout mice were kindly provided by Dr. Masato Tsutsui[41],[42]. The mice were group-housed under controlled illumination (12:12 h light-dark cycle) and temperature (23 ± 2 °C) conditions and given free access to normal chow and water, unless otherwise specified. The HFD-fed obese mice were prepared by feeding C57BL/6 mice a HFD for at least 8 weeks from 6 weeks of age. […] Male mice were used for all the experiments in this study. The animal care and experimental procedures used in the study were approved by The University of Tokyo Animal Care Committee (Approval number: 27-3), and the study was carried out in accordance with the Animal Experimentation Guidelines of Daiichi Sankyo Co., Ltd (Approved number: 20000411).
Mice received the indicated oral dose of DS20060511 or vehicle at the same time as the intraperitoneal injection of insulin (Humulin) at the indicated dose. Blood glucose levels were measured using Glutest Every in blood samples collected from the tail vein at the indicated timepoints.

[4] = tested on: WT and eNOSKO mice; test: Oral GTT in wild-type and eNOS-knockout mice; format: in vivo, mouse; conditions: Glucose tolerance test, 30 mg/kg, individual animals

COc1ccc2c(C)c(C(=O)O)ccc2c1C1C2=C(CC(C)(C)CC2=O)OC2=C1C(=O)CC(C)(C)C2 [DS20060511] was tested, and the “GLUT4 protein expression levels in the plasma membrane fraction of skeletal muscles” value [1] was “increased GLUT4 protein expression levels in the plasma membrane fraction”, the AMPK phosphorylation level [2] was “no such change was observed” and the Blood glucose ([3]; Wildtype, 10 mg/kg, 0 min) was 176 mg/dL and 163 mg/dL and 183 mg/dL and 182 mg/dL. For the same molecule, the Blood glucose ([3]; Wildtype, 10 mg/kg, 20 min) was 96 mg/dL and 77 mg/dL and 89 mg/dL and 88 mg/dL, the Blood glucose ([3]; Wildtype, 10 mg/kg, 40 min) was 60 mg/dL and 67 mg/dL and 74 mg/dL and the Blood glucose ([3]; Wildtype, 10 mg/kg, 60 min) was 58 mg/dL and 71 mg/dL and 70 mg/dL and 52 mg/dL. For the same molecule, the Blood glucose ([3]; Wildtype, 10 mg/kg, 80 min) was 57 mg/dL and 67 mg/dL and 68 mg/dL and 53 mg/dL, the Blood glucose ([3]; Wildtype, 10 mg/kg, 100 min) was 63 mg/dL and 84 mg/dL and 67 mg/dL and 58 mg/dL and the Blood glucose ([3]; Wildtype, 10 mg/kg, 120 min) was 57 mg/dL and 74 mg/dL and 70 mg/dL. The Blood glucose ([3]; eNOSKO, 30 mg/kg, 0 min) was 191 mg/dL and 175 mg/dL and 168 mg/dL and 169 mg/dL, the Blood glucose ([3]; eNOSKO, 30 mg/kg, 20 min) was 95 mg/dL and 89 mg/dL and 100 mg/dL and 120 mg/dL and 97 mg/dL and the Blood glucose ([3]; eNOSKO, 30 mg/kg, 40 min) was 69 mg/dL and 75 mg/dL and 81 mg/dL and 76 mg/dL. The Blood glucose ([3]; eNOSKO, 30 mg/kg, 60 min) was 61 mg/dL and 64 mg/dL and 40 mg/dL and 41 mg/dL and 51 mg/dL, the Blood glucose ([3]; eNOSKO, 30 mg/kg, 80 min) was 66 mg/dL and 55 mg/dL and 39 mg/dL and 48 mg/dL and the Blood glucose ([3]; eNOSKO, 30 mg/kg, 100 min) was 72 mg/dL and 53 mg/dL and 35 mg/dL and 34 mg/dL and 39 mg/dL. The Blood glucose ([3]; eNOSKO, 30 mg/kg, 120 min) was 76 mg/dL and 49 mg/dL and 55 mg/dL and 37 mg/dL and 39 mg/dL, the “blood glucose levels during ITT (in words)” value ([3]; WT and eNOSKO mice, 30 mg kg−1 po with 0.5 U kg−1 insulin ip) was “reduced even further” and the Blood glucose ([4]; 0 min) was 77 mg/dL. For the same molecule, the Blood glucose ([4]; -15 min) was 65 mg/dL.

Reference: PMC8379256, “A xanthene derivative, DS20060511, attenuates glucose intolerance by inducing skeletal muscle-specific GLUT4 translocation in mice” (Communications Biology, 2021)
